Results: BigSolDB 2.1

Nc1ccc(Cl)cc1[N+](=O)[O-]
solubility (mole fraction)
Conditions	278.15 K	283.15 K	288.15 K	293.15 K	298.15 K	303.15 K	308.15 K	313.15 K	318.15 K	323.15 K
in 1,4-dioxane	–	–	0.0282	0.0337	0.0405	0.0509	0.065	0.0828	0.105	0.133
in NMP	0.0539	0.0605	0.0737	0.0887	0.106	0.125	0.142	0.167	0.187	0.223
in acetonitrile	0.0327	0.0373	0.0442	0.053	0.0625	0.075	0.09	0.105	0.124	0.145
in cyclohexane	0.000163	0.000195	0.000267	0.000354	0.000468	0.000613	0.000773	0.000983	0.00124	0.0016
in ethanol	0.013	0.0144	0.0168	0.0194	0.0232	0.0277	0.0323	0.0371	0.043	0.0493
in ethyl acetate	0.0193	0.0244	0.032	0.0418	0.0535	0.0684	0.0883	0.113	0.143	0.177
in ethylene glycol	0.00179	0.00229	0.00281	0.00363	0.00453	0.00573	0.00737	0.00926	0.0118	0.0158
in isopropanol	0.0111	0.0123	0.0145	0.0175	0.0208	0.0252	0.0296	0.0352	0.0406	0.0463
in methanol	0.0158	0.017	0.0199	0.0239	0.0287	0.034	0.0403	0.0479	0.056	0.0667
in n-butanol	0.00963	0.0107	0.0124	0.0146	0.0177	0.0215	0.0257	0.0301	0.0357	0.0427
in n-propanol	0.0119	0.013	0.0152	0.018	0.0217	0.0259	0.0308	0.0362	0.042	0.0481
in water	8e-06	1e-05	1.4e-05	1.9e-05	2.5e-05	3.3e-05	4.3e-05	5.5e-05	7e-05	8.6e-05
